Test results taken from ChEMBL document CHEMBL1649252, “Plasmodium falciparum drug resistance in Madagascar: facing the spread of unusual pfdhfr and pfmdr-1 haplotypes and the decrease of dihydroartemisinin susceptibility” (Antimicrob Agents Chemother, 2009).

Tests used:
[1] = system: Plasmodium falciparum; assay: Antimalarial activity against Plasmodium falciparum assessed as parasite growth inhibition after 48 hrs by [3H]hypoxanthin incorporation assay; format: functional, organism-based
[2] = system: Plasmodium falciparum; assay: Antimalarial activity against Plasmodium falciparum assessed as resistant isolates; format: functional

SMILES	IC50 [1] [nM]	Activity [2] [%]
C[C@H]1[C@@H](O)O[C@@H]2O[C@@]3(C)CC[C@H]4[C@H](C)CC[C@@H]1[C@@]24OO3 [ARTENIMOL]	0.95	0
CCN(CC)CCCC(C)Nc1ccnc2cc(Cl)ccc12 (centres undefined) [CHLOROQUINE]		3.2
CCNCc1cc(Nc2ccnc3cc(Cl)ccc23)ccc1O [DESETHYL AMODIAQUINE]	8.3	0.5
OC(c1cc(C(F)(F)F)nc2c(C(F)(F)F)cccc12)C1CCCCN1 (centres undefined) [MEFLOQUINE]	6.7	0.4
C=C[C@H]1CN2CC[C@H]1C[C@H]2[C@H](O)c1ccnc2ccc(OC)cc12 [QUININE]	53.7	0
